According to publication PMC11079029, “Intramolecular autoinhibition regulates the selectivity of PRPF40A tandem WW domains for proline-rich motifs” (Nature Communications, 2024):
Where two headings read alike, the source gives them in different places.

Key:
[1] = tested on: GFP-tagged PRPF40A-Nter-MUT; assay: SILAC GFP-immunoprecipitation with quantitative mass spectrometry, mutant construct; assay type: binding, human (Hela cells); details: quantitative MS, Hela cells, protein by gene name
Experimental: The PRPF40A N-terminal region (isoform 2, residues 1-221) was PCR-amplified from RPE1 cDNA (ATCC, Cat# CRL-4000) cDNA. The sequence was amplified in two fragments and both fragments were combined by overhang. All PCRs were carried out using Q5 Polymerase (NEB) according to manufacturer’s protocol. The resulting PRPF40A N-terminal region was cloned into a GFP-expressing pcDNA5 vector (see pcDNA5 GFP vector in ref. [28]) using Q5 Site-Directed Mutagenesis Kit (NEB). Nter-MUT, containing the PPVP/PALPP motifs changed to AAAA/AAAAA, was obtained by mutating the N-ter-WW12-containing plasmid with Q5 site-directed mutagenesis. Plasmids were transformed into DH5alpha chemically competent cells. After culturing, DNA isolation was performed with either ZymoPURE Plasmid Miniprep Kit (Zymo Research) or QIAGEN Plasmid Plus Midi Kit (Qiagen). The sequence was confirmed by Sanger Sequencing (GATC Eurofins). All used oligonucleotides are shown in Supplementary Table 6.
Hela cells (ATCC, Cat# CCL-2, RRID:CVCL_0030) were cultured in DMEM SILAC medium (Thermo Fisher) supplemented with 10% filtered FBS (Sigma-Aldrich) and 1% penicillin-streptomycin (Thermo-Fisher). The SILAC medium contains either light (Arg0, Lys0), medium (Arg6, Lys4) or heavy (Arg10, Lys8) isotopes (Cambridge Isotopes Laboratories). Hela cells were cultivated for 14 days in SILAC medium to assure sufficient isotope incorporation. For transfection, 7 × 10^6 Hela cells were seeded in a 15 cm culture dish in 20 ml of respective SILAC medium and grown for 24 h. The cells were then transfected with 20 µg of plasmids expressing either GFP (Control), GFP-tagged N-ext-WW12 or GFP-tagged-N-ext-WW12-MUT utilizing 64 µl FuGENE (Promega) (ratio 1:3.2), according to manufacturer’s protocol.
24 h post-transfection, cells were washed twice in ice-cold PBS and harvested in 1 ml mRIPA buffer (50 mM Tris, 150 mM NaCl, 1 mM EDTA, 1% NP-40, 0.1% Na-deoxycholate), supplemented with 2 µl Turbo-DNase (Thermo Fisher) and 3 µl protease-inhibitor cocktail cOmplete (Sigma-Aldrich). Cell lysates were cleared by centrifugation at 16,000 × g, 4 °C, 15 min and concentration was measured using Pierce BCA Protein Assay kit (Thermo Scientific). The expressed constructs were pulled down by incubating 2.5 mg of lysate with 20 μl GFP-nanobody agarose beads (ChromoTek, GTA-20) for 1 h at 4 °C under constant agitation. Subsequently, beads were washed three times with mRIPA buffer without supplements, then eluted in 1X NuPAGE LDS sample buffer (Thermo Scientific). To detach the proteins from the beads, the eluate was heated to 70 °C for 10 min To evaluate the success of the immunoprecipitation, input (1%) and IP samples were analyzed on a NuPAGE 4–12% Bis-Tris-Acrylamide gel (Thermo Fisher) using NuPAGE MOPS SDS running buffer (Thermo Fisher). Proteins were stained using Sypro Ruby protein gel stain (Thermo Fisher) according to manufacturer’s protocol.
The eluted proteins of three SILAC states (light, medium, heavy) were combined. The proteins were then reduced in DTT, alkylated in iodoacetamide, and purified using the SP3 paramagnetic bead approach. This was followed by overnight enzymatic digestion using trypsin (1 µg per sample) in 50 mM ammonium bicarbonate at 37 °C. The peptide solution was then purified by solid phase extraction in C18 StageTips[99].
Peptides were separated by online reverse phase liquid chromatography using the EASY-nLC 1000 system (Thermo Scientific) in a 30-cm analytical column (inner diameter: 75 μm; heated at 50 °C) packed in-house with ReproSil-Pur 120 C18-AQ 1.9-μm beads (Dr. Maisch GmbH). The gradient separation was performed through a 105-min non-linear gradient of 1.6–32% acetonitrile with 0.1% formic acid at a nanoflow rate of 225 nl/min. The eluted peptides were sprayed directly by electrospray ionization into a Q Exactive Plus Orbitrap mass spectrometer (Thermo Scientific). […]

PRPF40A N-ext-WW12 = assay: NMR titration (1H-15N and 1H-13C HSQC) of N-ext-WW12 with SF1 peptides; assay type: binding, human; details: NMR titration of N-ext-WW12, ratios 1:1 up to 1:4
Experimental: NMR samples were prepared at concentrations ranging 100–1000 μM in buffer containing 20 mM sodium phosphate pH 6.5, 100 mM NaCl, 1 mM DTT, and 10% or 100% D2O, and measured at 25 °C (except stated otherwise) in 900-, 800-, 600- and 500-MHz Bruker Avance III NMR spectrometers equipped with cryogenic triple resonance gradient probes. Topspin 4.1.0 (Bruker) software was used for NMR data acquisition. Spectra were processed with NMRpipe 8.9[76] and analyzed using ccpnNMR Analysis 2.5 software.
^15N-labeled PRPF40A proteins (WW1, WW2, WW12, and N-extWW12) at around 100 μM concentration were titrated with increasing concentration ratios of polyproline or SF1 peptides (GB1 tagged) until reaching saturation, when possible; ^1H-^15N HSQC experiments and in some cases ^1H-^13C HSQC experiments (using double-labeled PRPF40A proteins) were acquired at each titration point. The chemical shift perturbation (CSP) was weighted using the Eqs. (1) and (2)[89].1 CSP(HN)=0.5⋅ΔδH2+0.14⋅ΔδN2 2 CSP(HC)=0.5⋅ΔδH2+0.3⋅ΔδC2

[2] = target: T1, PRPF40A WW12 (tandem WW domains, residues 141–236) (Homo sapiens, UniProt O75400); assay: ITC of PRPF40A WW12 with GB1-tagged proline-rich peptides and constructs; assay type: binding; details: for Kd: ITC
T1 construct: WW12 141–236, WW12long 141–248, and N-ext-WW12 56–236; 6xHis-TEV site (N, cleaved yes); made in house; host or cells: Escherichia coli BL21(DE3)
From the text: PRPF40A isoform 1 sequences (N-ter 1–310, WW12short 141–223, WW12 141–236, WW12long 141–248, and N-ext-WW12 56–236) were amplified from a purchased DNA fragment (IDT) and cloned using NcoI and KpnI restriction sites into a pETM11 vector encoding 6xHis and TEV cleavage site as a N-terminal tag. SF1 (Pro A 410–468, Pro B 468–539, Pro C 539–594, Pro D 594–639, Pro BC 468–594, Pro CD 539–639, Pro BCD 468–639 and Pro ABCD 410–639) and SF3A1 (Middle Pro 364–413 and C-ter Pro 552–683) constructs were prepared in a similar manner using a pET24 vector with a 6xHis, GB1 and TEV cleavage site as N-terminal fusion cassette. 16-mer SF1 constructs (Table 1) and polyproline peptides (P6, P8, P10, P13, P16, P19, P22, P25, and P29) were cloned in the same pET24 vector with GB1 tag by direct ligation of purchased oligonucleotides (Eurofins). All peptide sequences contained N and C-terminal common residues to avoid boundary effects on binding: TEVsite-GAMSGS-peptide-SGSN. Mutants of PRPF40A WW12 and N-ext-WW12 constructs were prepared by site-directed mutagenesis. The truncated version of PRPF40A WW12 (141-217) was a gift from Dr. María Macías (IRB, Spain). All used oligonucleotides were purchased from Eurofins Genomics and are shown in Supplementary Table 6.
Resuspended cell pellets in 20 mM Tris pH 8.0, 500 mM NaCl, 10 mM imidazole, 0.5 mM TCEP, and protease inhibitors mix (SERVA) were lysed by cell disruption in a French press. Clear lysates, after centrifugation (at 18,000 g) and filtering, were loaded into Ni-NTA resin. The resin was then washed with 20 mM imidazole containing buffer, and the desired protein was eluted with 500 mM imidazole. PRPF40A constructs were then subjected to TEV protease treatment (homemade at a final concentration of ≈50 μg/ml), dialyzed overnight at 4 °C against an imidazole-free buffer, and then loaded again to Ni-NTA resin; desired digested proteins were obtained in the flow-through and wash fractions while uncleaved protein, TEV protease, and impurities remained bound to the resin. Cleaved PRPF40A proteins and GB1-tagged SF1, SF3A1, and polyproline constructs were further purified by size-exclusion chromatography on a HiLoad 16/60 Superdex 75 column (GE Healthcare) equilibrated with 20 mM sodium phosphate, pH 6.5, 100 mM NaCl and 1 mM DTT buffer. For the purification of PRPF40A WW12 in complex with SF1 peptide, cell pellets of recombinant expression for both proteins were mixed and processed together following the Ni-NTA—TEV digestion—reverse Ni-NTA—SEC-75 protocol; where the complex remained bound in a 1:1 stoichiometry throughout the whole purification (corroborated by NMR). Molecular weight of each sample was confirmed by mass spectrometry, purity was checked by PAGE-SDS, and protein concentrations were determined from the aromatic contribution to the UV absorbance spectra at 280 nm.
Experiments were conducted on a MicroCAl PEAQ-ITC (Malvern Instruments, UK) at 25 °C in 20 mM sodium phosphate pH 6.5 and 100 mM NaCl. PRPF40A was titrated into N-terminal GB1 tagged SF1 or polyproline constructs and vice versa with similar results. Protein concentrations in the cell were around 20–40 μM, while in the syringe ranged between 200 and 500 μM. Experiments were performed at least in duplicate with injections of 1.5 μL (0.4 μL for first point) separated by 150 s delays to recover thermal power baseline and continuous stirring in the cell (750 rpm) for correct mixing. The reference cell was filled with water in all experiments. Data were processed by removing the blank experiment (using digested GB1 fusion protein) and adjusted to one-site binding model with Malvern PEAQ-ITC Analysis software (Malvern Instruments, UK).

T1 sequence (O75400 141-236): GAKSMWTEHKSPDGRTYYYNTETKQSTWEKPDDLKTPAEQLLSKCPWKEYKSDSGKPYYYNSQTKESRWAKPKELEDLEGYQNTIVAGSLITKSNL

Substance	Immunoprecipitation enrichment MUT vs WT, log2 FC [1]	other results
CCNT1;CCNT2	1.3354	–
CDK9	1.401	–
CDK12	1.215	–
EFTUD2	1.181	–
INF2	1.013	–
MPPPPMGMMPPPPPPP [SF1_470–485]	–	displacement of the intramolecular N-terminal motifs (methyl signals Val 80, Val 129) (PRPF40A N-ext-WW12): cannot fully displace the intramolecular motifs; N (sites) ([2]; ITC as E1, peptide in the cell, WW tandem in the syringe, N >1 = more than one WW tandem per peptide): 0.90 ± 0.16 sites; DH ([2]; ITC binding enthalpy, as E1): -13.6 ± 0.813 kcal/mol; Kd ([2]; 25 °C, 20 mM sodium phosphate pH 6.5, 100 mM NaCl, GB1-tagged polyproline or SF1 16-mer peptide in the cell, WW tandem in the syringe, one-site model, apparent Kd, average of at least duplicates, read-out: Kd): 13.9 ± 2.3 µM; Kd ([2]; SF1 peptides, individual value 1 (replicate 1), read-out: Kd Values with WW12, individual value): 10.9 µM; Kd ([2]; SF1 peptides, individual value 2 (replicate 2), read-out: Kd Values with WW12, individual value): 13.3 µM; Kd ([2]; SF1 peptides, individual value 3 (replicate 3), read-out: Kd Values with WW12, individual value): 14 µM; Kd ([2]; SF1 peptides, individual value 4 (replicate 4), read-out: Kd Values with WW12, individual value): 17.3 µM
SAE1	1.104	–
SNRNP200	1.2097	–
WIZ	1.529	–
